Source: ChEMBL document CHEMBL6153102, “Rational Design, Synthesis, and Biological Evaluation of Novel c-Met Degraders for Lung Cancer Therapy” (J Med Chem, 2025)
The source made the active and inactive calls. The rule behind the calls is not given here.

Key:
[1] = target: T1, Protein cereblon/Hepatocyte growth factor receptor (Homo sapiens, UniProt P08581+Q96SW2); experiment: PROTAC activity at c-Met/CRBN in human HCT-116 cells assessed as induction of c-Met degradation at 100 nM incubated for 24 hrs by Western blotting analysis relative to control; format: cell-based
[2] = target: T1, Protein cereblon/Hepatocyte growth factor receptor; experiment: PROTAC activity at c-Met/CRBN in human A549 cells assessed as induction of c-Met degradation at 100 nM incubated for 24 hrs by Western blotting analysis relative to control; format: cell-based
[3] = target: T1, Protein cereblon/Hepatocyte growth factor receptor; experiment: PROTAC activity at c-Met/CRBN in human EBC-1 cells assessed as induction of c-Met degradation at 100 nM incubated for 24 hrs by Western blotting analysis relative to control; format: cell-based
[4] = system: A549; experiment: Antiproliferative activity against human A549 cells assessed as cell viability incubated for 72 hrs by MTT assay; format: functional, cell-based; conditions: A549, 72 h
[5] = system: MKN-45; experiment: Antiproliferative activity against human MKN-45 cells assessed as cell viability incubated for 72 hrs by MTT assay; format: functional, cell-based; conditions: MKN-45, 72 h
[6] = system: HCT-116; experiment: Antiproliferative activity against human HCT-116 cells assessed as cell viability incubated for 72 hrs by MTT assay; format: functional, cell-based; conditions: HCT-116, 72 h
[7] = system: Hs746T; experiment: Antiproliferative activity against human Hs746T cells assessed as cell viability incubated for 72 hrs by MTT assay; format: functional, cell-based
[8] = system: EBC-1; experiment: Antiproliferative activity against human EBC-1 cells assessed as cell viability incubated for 72 hrs by MTT assay; format: functional, cell-based; conditions: EBC-1, 72 h
[9] = system: EBC-1; experiment: Antitumor activity against human EBC-1 cells xenografted BALB/c nude mouse assessed as reduction in tumor volume at 20 mg/kg, ip administered for 7 days; format: functional; design: scale not given: the % may be the effect or the level left; conditions: time 7 day

T1 sequence (P08581 25-1390 limits assumed): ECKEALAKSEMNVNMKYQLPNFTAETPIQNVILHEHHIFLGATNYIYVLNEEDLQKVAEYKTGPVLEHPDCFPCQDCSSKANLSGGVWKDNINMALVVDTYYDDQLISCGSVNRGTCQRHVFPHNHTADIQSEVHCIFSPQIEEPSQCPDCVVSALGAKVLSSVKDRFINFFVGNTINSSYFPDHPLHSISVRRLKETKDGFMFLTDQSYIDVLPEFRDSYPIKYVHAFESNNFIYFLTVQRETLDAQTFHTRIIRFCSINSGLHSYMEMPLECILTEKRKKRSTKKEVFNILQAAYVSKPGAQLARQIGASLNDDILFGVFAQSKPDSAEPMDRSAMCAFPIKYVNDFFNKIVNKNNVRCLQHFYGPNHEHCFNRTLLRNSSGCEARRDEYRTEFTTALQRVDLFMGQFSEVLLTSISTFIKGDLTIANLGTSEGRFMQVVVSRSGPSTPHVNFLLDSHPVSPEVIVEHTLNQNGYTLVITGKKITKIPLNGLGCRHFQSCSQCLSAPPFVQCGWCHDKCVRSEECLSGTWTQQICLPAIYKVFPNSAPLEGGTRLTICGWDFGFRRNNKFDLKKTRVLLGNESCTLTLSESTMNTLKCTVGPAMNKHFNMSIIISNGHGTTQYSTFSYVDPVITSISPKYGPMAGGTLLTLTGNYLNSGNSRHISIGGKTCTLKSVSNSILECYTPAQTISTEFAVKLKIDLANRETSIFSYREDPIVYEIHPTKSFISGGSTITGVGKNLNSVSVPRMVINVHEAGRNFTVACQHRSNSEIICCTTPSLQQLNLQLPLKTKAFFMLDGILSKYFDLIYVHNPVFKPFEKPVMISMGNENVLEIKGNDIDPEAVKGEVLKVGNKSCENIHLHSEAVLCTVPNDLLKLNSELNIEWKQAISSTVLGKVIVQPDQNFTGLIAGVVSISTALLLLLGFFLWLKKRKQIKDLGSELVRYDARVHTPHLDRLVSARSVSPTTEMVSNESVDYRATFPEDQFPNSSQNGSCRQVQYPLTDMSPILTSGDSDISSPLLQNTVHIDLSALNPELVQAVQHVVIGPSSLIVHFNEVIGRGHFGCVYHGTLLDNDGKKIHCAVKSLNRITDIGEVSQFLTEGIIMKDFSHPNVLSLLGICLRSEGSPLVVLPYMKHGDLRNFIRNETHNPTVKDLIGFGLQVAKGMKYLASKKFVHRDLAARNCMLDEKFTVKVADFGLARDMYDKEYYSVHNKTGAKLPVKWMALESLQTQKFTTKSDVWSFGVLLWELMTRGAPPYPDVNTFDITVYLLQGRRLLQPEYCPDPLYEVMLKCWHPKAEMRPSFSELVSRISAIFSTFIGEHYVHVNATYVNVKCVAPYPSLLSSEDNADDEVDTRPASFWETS
T1 sequence (Q96SW2 whole entry partner): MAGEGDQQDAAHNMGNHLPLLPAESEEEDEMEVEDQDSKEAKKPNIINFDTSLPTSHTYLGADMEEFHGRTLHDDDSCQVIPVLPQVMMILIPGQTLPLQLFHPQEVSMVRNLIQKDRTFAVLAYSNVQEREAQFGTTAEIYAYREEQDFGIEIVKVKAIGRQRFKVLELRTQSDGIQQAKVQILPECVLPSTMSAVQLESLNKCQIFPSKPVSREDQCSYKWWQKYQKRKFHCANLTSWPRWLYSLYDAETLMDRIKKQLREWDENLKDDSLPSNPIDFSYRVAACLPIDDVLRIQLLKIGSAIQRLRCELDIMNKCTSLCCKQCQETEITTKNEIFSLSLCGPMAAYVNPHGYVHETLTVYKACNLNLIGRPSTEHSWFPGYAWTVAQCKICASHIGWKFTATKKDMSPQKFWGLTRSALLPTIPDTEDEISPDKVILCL

| Structure (SMILES) | Activity [1] | Activity [2] | Activity [3] | also measured |
| --- | --- | --- | --- | --- |
| COc1ccc(C(=O)N2CCC3(CC2)CN(C(=O)CN2CCC(COc4cnc(-c5cccc(Cn6nc(-c7cccc(C#N)c7)ccc6=O)c5)nc4)CC2)C3)cc1N1CCC(=O)NC1=O | inactive | inactive | 37.7% | – |
| COc1ccc(C(=O)NCCCCN2CCC(COc3cnc(-c4cccc(Cn5nc(-c6cccc(C#N)c6)ccc5=O)c4)nc3)CC2)cc1N1CCC(=O)NC1=O | inactive | inactive | inactive | – |
| COc1ccc(C(=O)N2CCC3(CCN(C(=O)CCCCN4CCC(COc5cnc(-c6cccc(Cn7nc(-c8cccc(C#N)c8)ccc7=O)c6)nc5)CC4)CC3)CC2)cc1N1CCC(=O)NC1=O | inactive | inactive | 83.7% | – |
| CN1CCC(COc2cnc(-c3cccc(Cn4nc(-c5cccc(C#N)c5)ccc4=O)c3)nc2)CC1 [TEPOTINIB] | – | – | – | IC50 [4]: 13500 nM; IC50 [5]: 63 nM; IC50 [6]: 4940 nM; IC50 [7]: 38 nM; IC50 [8]: 12 nM; Activity [9]: 74.5% |
| N#Cc1cccc(-c2ccc(=O)n(Cc3cccc(-c4ncc(OCC5CCN(C(=O)CCCCNC(=O)CC67C[C@H]8C[C@@H](C6)C[C@@H](C7)C8)CC5)cn4)c3)n2)c1 | inactive | inactive | 2.8% | – |
| COc1ccc(C(=O)N2CCN(C(=O)CN3CCC(COc4cnc(-c5cccc(Cn6nc(-c7cccc(C#N)c7)ccc6=O)c5)nc4)CC3)CC2)cc1N1CCC(=O)NC1=O | inactive | inactive | inactive | – |
| N#Cc1cccc(-c2ccc(=O)n(Cc3cccc(-c4ncc(OCC5CCN(C(=O)CCCCNC(=O)C(c6ccccc6)c6ccccc6)CC5)cn4)c3)n2)c1 | inactive | inactive | 4.4% | – |
| N#Cc1cccc(-c2ccc(=O)n(Cc3cccc(-c4ncc(OCC5CCN(C(=O)C6c7ccccc7-c7ccccc76)CC5)cn4)c3)n2)c1 | inactive | inactive | 13.4% | – |
| N#Cc1cccc(-c2ccc(=O)n(Cc3cccc(-c4ncc(OCC5CCN(C(=O)C(C6CCCCC6)C6CCCCC6)CC5)cn4)c3)n2)c1 | inactive | inactive | inactive | – |
| COc1ccc(C(=O)N2CC3CN(C(=O)CN4CCC(COc5cnc(-c6cccc(Cn7nc(-c8cccc(C#N)c8)ccc7=O)c6)nc5)CC4)CC3C2)cc1N1CCC(=O)NC1=O (stereo not given) | inactive | inactive | inactive | – |
| COc1ccc(C(=O)N2CCC3(CCN(C(=O)CCN4CCC(COc5cnc(-c6cccc(Cn7nc(-c8cccc(C#N)c8)ccc7=O)c6)nc5)CC4)CC3)CC2)cc1N1CCC(=O)NC1=O | inactive | inactive | 85.6% | – |
| COc1ccc(C(=O)N2CCC3(CCN(C(=O)CCCCCN4CCC(COc5cnc(-c6cccc(Cn7nc(-c8cccc(C#N)c8)ccc7=O)c6)nc5)CC4)CC3)CC2)cc1N1CCC(=O)NC1=O | inactive | inactive | 79.1% | – |
| N#Cc1cccc(-c2ccc(=O)n(Cc3cccc(-c4ncc(OCC5CCN(C(=O)C(c6ccccc6)c6ccccc6)CC5)cn4)c3)n2)c1 | inactive | inactive | 2.7% | – |
| N#Cc1cccc(-c2ccc(=O)n(Cc3cccc(-c4ncc(OCC5CCN(C(=O)CCCCNC(=O)C6c7ccccc7-c7ccccc76)CC5)cn4)c3)n2)c1 | inactive | inactive | 4.1% | – |
| COc1ccc(C(=O)N2CCC3(CCN(C(=O)CN4CCC(COc5cnc(-c6cccc(Cn7nc(-c8cccc(C#N)c8)ccc7=O)c6)nc5)CC4)C3)C2)cc1N1CCC(=O)NC1=O (stereo not given) | inactive | inactive | 54.1% | – |
| COc1ccc(C(=O)N2CC3CC(CN(C(=O)CN4CCC(COc5cnc(-c6cccc(Cn7nc(-c8cccc(C#N)c8)ccc7=O)c6)nc5)CC4)C3)C2)cc1N1CCC(=O)NC1=O | inactive | inactive | inactive | – |
| N#Cc1cccc(-c2ccc(=O)n(Cc3cccc(-c4ncc(OCC5CCN(C(=O)CCCCNC(=O)C(C6CCCCC6)C6CCCCC6)CC5)cn4)c3)n2)c1 | inactive | inactive | 0.9% | – |
| COc1ccc(C(=O)NCCCCCCN2CCC(COc3cnc(-c4cccc(Cn5nc(-c6cccc(C#N)c6)ccc5=O)c4)nc3)CC2)cc1N1CCC(=O)NC1=O | inactive | inactive | inactive | – |
| N#Cc1cccc(-c2ccc(=O)n(Cc3cccc(-c4ncc(OCC5CCN(C(=O)C[C@]67CC8CC(C[C@H](C8)C6)C7)CC5)cn4)c3)n2)c1 | inactive | inactive | 1.5% | – |
| COc1ccc(C(=O)N2CCC3(CCN(C(=O)CN4CCC(COc5cnc(-c6cccc(Cn7nc(-c8cccc(C#N)c8)ccc7=O)c6)nc5)CC4)C3)CC2)cc1N1CCC(=O)NC1=O | inactive | inactive | 74.6% | – |
| N#Cc1cccc(-c2ccc(=O)n(Cc3cccc(-c4ncc(OCC5CCN(C(=O)C6CC7C=CC6C7)CC5)cn4)c3)n2)c1 (stereo not given) | inactive | inactive | 22.4% | – |
| CC(C)Cc1ccc([C@H](C)C(=O)NCCCCC(=O)N2CCC(COc3cnc(-c4cccc(Cn5nc(-c6cccc(C#N)c6)ccc5=O)c4)nc3)CC2)cc1 | inactive | inactive | inactive | – |
| N#Cc1cccc(-c2ccc(=O)n(Cc3cccc(-c4ncc(OCC5CCN(C(=O)CCCCNC(=O)C6CC7C=CC6C7)CC5)cn4)c3)n2)c1 (stereo not given) | inactive | inactive | 12.4% | – |
| CC(C)Cc1ccc([C@H](C)C(=O)N2CCC(COc3cnc(-c4cccc(Cn5nc(-c6cccc(C#N)c6)ccc5=O)c4)nc3)CC2)cc1 | inactive | inactive | 23.3% | – |
